Data set [1] concerns NCI-H1975. The data set is described as follows: Antitumor activity against human NCI-H1975 cells xenografted in nude mouse assessed as induction of tumor stasis at 20 mg/kg, ip qd for 14 days. Type of data set: functional, organism-based. Also noted: dose 20 mg/kg. On the technique in general: Xenograft models place foreign cells or tissue in a host animal.
The subject of data set [2] is NCI-H1975. Kind of data set: Antitumor activity against human NCI-H1975 cells xenografted in nude mouse assessed as tumor growth inhibition at 20 mg/kg, ip qd for 14 days. Type of data set: functional, organism-based. Set-up: dose 20 mg/kg.
In data set [3] the test system is Mus musculus. Kind of data set: Toxicity in nude mouse xenografted with human NCI-H1975 cells expressing T790M/L858R mutation assessed as mortality at 20 to 40 mg/kg, ip qd for 14 days. Type of data set: organism-based. Set-up: dose 20-40 mg/kg, route intraperitoneal. The note with it: in vivo, 336 h.
The subject of data set [4] is Mus musculus. The data set is described as follows: Toxicity in nude mouse xenografted with human NCI-H1975 cells expressing T790M/L858R mutation assessed as body weight loss at 20 to 40 mg/kg, ip qd for 14 days relative to control. Type of data set: organism-based. Set-up: dose 20-40 mg/kg, route intraperitoneal. The conditions noted are these: in vivo, 336 h.
Data set [5] is described as follows: Toxicity in ip dosed nude mouse xenografted with human NCI-H1975 cells expressing T790M/L858R mutation administered qd for 14 days. Type of data set: organism-based. The conditions noted are these: in vivo.
For data set [6], the system named is NCI-H1975. The data set is described as follows: cells. The note with it: Homo sapiens, NCI-H1975, 72 h. It is filed as functional, cell-based.
A short description of data set [7]: Antiproliferative activity against gefitinib-sensitive human HCC827 cells harboring EGFR E746 to A750 deletion after 72 hrs by MTS assay. It is filed as functional, cell-based. The note with it: HCC827, 72 h. For orientation: Tetrazolium assays rely on reduction of a dye to a coloured formazan, in cell work by metabolically active cells.
For data set [8], the target named is Epidermal growth factor receptor (Homo sapiens, UniProt P00533, L858R/T790M). The data set is described as follows: Inhibition of EGFR T790M/L858R double mutant (unknown origin) using Tyr 4 peptide as substrate after 1.5 hrs by FRET-based Z'-LYTE assay. It is filed as protein assay.
Sequence of Epidermal growth factor receptor (Homo sapiens, UniProt P00533, L858R/T790M) (P00533 25-1210 T790M/L858R limits assumed): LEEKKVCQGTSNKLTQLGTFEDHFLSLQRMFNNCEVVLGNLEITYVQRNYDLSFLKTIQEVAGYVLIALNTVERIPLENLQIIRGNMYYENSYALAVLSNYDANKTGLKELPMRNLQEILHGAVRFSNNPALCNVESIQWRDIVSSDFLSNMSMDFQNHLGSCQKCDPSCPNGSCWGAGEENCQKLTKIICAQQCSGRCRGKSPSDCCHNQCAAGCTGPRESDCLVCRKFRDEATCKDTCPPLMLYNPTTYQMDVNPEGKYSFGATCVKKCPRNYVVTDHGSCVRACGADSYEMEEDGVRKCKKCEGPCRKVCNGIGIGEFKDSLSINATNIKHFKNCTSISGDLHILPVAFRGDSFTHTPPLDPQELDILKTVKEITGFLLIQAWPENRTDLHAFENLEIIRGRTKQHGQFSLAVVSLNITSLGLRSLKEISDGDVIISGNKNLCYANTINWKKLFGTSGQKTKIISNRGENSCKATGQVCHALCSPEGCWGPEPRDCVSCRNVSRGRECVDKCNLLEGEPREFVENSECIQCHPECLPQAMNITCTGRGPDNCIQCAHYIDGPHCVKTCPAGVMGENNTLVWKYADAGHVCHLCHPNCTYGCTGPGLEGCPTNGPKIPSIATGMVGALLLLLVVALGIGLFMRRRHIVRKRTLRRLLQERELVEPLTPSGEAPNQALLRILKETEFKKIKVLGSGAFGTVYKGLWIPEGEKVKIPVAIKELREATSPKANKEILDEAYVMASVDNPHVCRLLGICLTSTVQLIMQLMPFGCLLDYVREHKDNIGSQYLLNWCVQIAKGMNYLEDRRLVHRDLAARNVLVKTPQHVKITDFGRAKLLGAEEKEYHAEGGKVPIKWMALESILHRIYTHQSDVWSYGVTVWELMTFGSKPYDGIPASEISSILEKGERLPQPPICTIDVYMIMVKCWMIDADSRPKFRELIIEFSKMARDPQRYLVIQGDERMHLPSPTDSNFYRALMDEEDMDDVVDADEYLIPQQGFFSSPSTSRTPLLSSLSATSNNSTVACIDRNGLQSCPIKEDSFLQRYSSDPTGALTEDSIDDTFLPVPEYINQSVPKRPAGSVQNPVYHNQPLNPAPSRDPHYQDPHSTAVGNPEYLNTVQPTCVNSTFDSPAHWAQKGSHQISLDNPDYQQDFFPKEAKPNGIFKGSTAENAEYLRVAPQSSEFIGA
For data set [9], the target named is Epidermal growth factor receptor (Homo sapiens, UniProt P00533, L858R). Kind of data set: Inhibition of EGFR L858R mutant (unknown origin) using Tyr 4 peptide as substrate after 1.5 hrs by FRET-based Z'-LYTE assay. It is filed as protein assay. The conditions noted are these: read-out: IC50.
In data set [10] the target is T1, Epidermal growth factor receptor (Homo sapiens, UniProt P00533). Kind of data set: Inhibition of wild type EGFR (unknown origin) using Tyr 4 peptide as substrate after 1.5 hrs by FRET-based Z'-LYTE assay. The conditions noted are these: read-out: IC50.
T1 sequence (P00533 whole entry): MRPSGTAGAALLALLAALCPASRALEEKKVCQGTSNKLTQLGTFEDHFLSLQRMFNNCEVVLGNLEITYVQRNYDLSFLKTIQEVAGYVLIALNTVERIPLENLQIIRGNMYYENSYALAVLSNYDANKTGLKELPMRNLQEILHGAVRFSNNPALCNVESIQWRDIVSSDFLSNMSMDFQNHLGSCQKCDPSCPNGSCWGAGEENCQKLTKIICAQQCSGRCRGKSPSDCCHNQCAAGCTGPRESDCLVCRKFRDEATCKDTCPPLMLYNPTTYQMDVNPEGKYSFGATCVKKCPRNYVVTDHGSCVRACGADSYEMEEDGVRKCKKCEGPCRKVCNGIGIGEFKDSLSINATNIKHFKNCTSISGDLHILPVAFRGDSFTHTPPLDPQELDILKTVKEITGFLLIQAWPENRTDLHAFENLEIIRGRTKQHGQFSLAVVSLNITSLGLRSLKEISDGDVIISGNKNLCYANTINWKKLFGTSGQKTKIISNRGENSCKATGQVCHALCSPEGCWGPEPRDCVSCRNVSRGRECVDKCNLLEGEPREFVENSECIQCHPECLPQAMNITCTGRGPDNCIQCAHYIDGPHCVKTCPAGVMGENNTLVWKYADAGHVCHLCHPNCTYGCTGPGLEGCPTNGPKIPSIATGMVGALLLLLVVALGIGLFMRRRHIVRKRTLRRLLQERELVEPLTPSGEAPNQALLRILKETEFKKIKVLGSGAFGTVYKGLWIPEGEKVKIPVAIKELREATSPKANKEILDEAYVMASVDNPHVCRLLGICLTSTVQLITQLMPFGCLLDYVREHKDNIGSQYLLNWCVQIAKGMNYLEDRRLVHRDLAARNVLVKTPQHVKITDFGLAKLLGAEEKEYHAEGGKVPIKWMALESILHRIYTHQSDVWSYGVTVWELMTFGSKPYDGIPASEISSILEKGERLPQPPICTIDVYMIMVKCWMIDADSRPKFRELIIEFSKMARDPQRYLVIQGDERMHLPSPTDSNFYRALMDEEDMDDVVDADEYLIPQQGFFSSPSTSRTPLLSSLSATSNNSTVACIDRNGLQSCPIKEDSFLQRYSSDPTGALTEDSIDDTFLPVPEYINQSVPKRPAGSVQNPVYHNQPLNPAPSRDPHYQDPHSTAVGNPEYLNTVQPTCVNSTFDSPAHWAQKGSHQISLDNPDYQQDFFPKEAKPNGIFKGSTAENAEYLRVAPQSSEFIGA
For data set [11], the system named is Epidermal growth factor receptor (Homo sapiens), P00533 [L858R,T790M]. The conditions noted are these: 1 uM.
Data set [12] has as its system Epidermal growth factor receptor (Homo sapiens), P00533 [L858R]. The note with it: 1 uM.
The target of data set [13] is T2, Tyrosine-protein kinase JAK3 (Homo sapiens) (UniProt P52333).
T2 sequence (whole entry): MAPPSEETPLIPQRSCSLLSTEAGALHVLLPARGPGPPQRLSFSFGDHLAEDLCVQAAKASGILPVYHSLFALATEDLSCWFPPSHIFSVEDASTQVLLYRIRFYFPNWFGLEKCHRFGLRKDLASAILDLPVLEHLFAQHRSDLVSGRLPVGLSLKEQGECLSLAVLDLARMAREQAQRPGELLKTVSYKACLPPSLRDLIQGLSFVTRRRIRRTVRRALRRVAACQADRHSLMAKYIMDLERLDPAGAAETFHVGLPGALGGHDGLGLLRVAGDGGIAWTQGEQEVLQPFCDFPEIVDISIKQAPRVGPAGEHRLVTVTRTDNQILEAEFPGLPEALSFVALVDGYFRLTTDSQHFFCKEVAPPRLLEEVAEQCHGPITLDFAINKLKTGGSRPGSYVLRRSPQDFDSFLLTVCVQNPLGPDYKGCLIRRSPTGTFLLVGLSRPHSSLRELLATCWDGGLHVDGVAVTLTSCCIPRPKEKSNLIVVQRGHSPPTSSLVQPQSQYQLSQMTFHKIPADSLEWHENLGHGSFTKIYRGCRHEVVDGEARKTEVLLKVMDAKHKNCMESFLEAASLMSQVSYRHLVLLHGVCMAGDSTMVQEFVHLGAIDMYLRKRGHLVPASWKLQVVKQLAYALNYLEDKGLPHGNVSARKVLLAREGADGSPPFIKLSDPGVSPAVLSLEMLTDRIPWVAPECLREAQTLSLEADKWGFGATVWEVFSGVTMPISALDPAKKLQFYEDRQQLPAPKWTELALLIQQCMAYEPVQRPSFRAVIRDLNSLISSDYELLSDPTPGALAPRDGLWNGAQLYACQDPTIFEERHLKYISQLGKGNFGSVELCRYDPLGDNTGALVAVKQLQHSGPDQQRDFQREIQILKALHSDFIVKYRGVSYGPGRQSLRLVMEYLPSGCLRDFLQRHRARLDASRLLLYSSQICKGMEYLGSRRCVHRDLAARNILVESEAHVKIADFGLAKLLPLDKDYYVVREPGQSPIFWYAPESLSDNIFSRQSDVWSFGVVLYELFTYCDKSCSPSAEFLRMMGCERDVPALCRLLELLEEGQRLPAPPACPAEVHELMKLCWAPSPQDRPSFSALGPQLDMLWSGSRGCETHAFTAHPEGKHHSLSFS
The conditions noted are these: 1 uM.
Description: Inhibition of JAK3 JH1 catalytic domain (unknown origin) at 1 uM after 1 hr relative to control

The target in data set [14] is Receptor tyrosine-protein kinase erbB-2 (Homo sapiens) (UniProt P04626). The conditions noted are these: 1 uM.
Sequence of Receptor tyrosine-protein kinase erbB-2 (Homo sapiens) (P04626 whole entry): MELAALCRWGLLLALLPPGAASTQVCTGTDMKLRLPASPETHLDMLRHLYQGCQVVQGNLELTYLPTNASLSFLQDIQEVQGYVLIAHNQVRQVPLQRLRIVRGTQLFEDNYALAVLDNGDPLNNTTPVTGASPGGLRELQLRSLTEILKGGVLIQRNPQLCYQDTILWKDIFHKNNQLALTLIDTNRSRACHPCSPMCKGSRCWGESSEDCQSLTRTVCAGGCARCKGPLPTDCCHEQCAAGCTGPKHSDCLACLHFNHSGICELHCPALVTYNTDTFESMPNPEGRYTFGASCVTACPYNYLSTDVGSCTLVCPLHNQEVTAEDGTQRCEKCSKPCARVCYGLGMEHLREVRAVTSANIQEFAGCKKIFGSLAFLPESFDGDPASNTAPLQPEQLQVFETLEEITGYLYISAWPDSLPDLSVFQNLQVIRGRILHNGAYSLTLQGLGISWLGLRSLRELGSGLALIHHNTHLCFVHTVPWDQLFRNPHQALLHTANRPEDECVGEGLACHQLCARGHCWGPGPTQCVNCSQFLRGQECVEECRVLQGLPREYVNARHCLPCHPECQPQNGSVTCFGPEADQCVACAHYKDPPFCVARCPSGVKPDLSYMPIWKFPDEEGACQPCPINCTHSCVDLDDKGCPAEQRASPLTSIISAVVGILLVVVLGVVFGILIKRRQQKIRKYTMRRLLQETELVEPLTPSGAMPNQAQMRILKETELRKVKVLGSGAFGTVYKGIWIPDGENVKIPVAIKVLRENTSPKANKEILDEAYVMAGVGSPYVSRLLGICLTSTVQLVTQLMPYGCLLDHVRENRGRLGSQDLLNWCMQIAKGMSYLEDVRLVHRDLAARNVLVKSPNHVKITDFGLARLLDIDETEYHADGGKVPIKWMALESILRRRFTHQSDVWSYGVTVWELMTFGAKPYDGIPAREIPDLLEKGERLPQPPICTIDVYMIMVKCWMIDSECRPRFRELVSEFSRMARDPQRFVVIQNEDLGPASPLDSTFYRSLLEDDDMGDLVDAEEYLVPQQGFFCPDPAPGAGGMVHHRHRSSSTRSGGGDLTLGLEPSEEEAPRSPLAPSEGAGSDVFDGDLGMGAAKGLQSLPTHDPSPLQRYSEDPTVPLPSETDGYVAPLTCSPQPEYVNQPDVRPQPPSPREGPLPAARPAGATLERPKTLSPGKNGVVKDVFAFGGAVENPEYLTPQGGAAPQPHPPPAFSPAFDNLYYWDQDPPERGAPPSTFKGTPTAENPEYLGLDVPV
Description: Inhibition of HER2 (unknown origin) at 1 uM after 1 hr relative to control
Data set [15] deals with T1, Epidermal growth factor receptor. The conditions noted are these: 1 uM.
Description: Inhibition of EGFR (unknown origin) at 1 uM after 1 hr relative to control
Data set [16] concerns the target Receptor tyrosine-protein kinase erbB-4 (Homo sapiens) (UniProt Q15303). The note with it: 1 uM.
Description: Inhibition of HER4 (unknown origin) at 1 uM after 1 hr relative to control
In data set [17] the target is Tyrosine-protein kinase BTK (Homo sapiens) (UniProt Q06187). The conditions noted are these: 1 uM.
Description: Inhibition of BTK (unknown origin) at 1 uM after 1 hr relative to control
For data set [18], the system named is Epidermal growth factor receptor (Homo sapiens), P00533 [T790M]. The note with it: 1 uM.

Calls of active or inactive are those of the source. The rule behind the calls is not given here. Some results are limits rather than exact numbers.

Sequence of Epidermal growth factor receptor (Homo sapiens), P00533 [L858R] (P00533 whole entry L858R): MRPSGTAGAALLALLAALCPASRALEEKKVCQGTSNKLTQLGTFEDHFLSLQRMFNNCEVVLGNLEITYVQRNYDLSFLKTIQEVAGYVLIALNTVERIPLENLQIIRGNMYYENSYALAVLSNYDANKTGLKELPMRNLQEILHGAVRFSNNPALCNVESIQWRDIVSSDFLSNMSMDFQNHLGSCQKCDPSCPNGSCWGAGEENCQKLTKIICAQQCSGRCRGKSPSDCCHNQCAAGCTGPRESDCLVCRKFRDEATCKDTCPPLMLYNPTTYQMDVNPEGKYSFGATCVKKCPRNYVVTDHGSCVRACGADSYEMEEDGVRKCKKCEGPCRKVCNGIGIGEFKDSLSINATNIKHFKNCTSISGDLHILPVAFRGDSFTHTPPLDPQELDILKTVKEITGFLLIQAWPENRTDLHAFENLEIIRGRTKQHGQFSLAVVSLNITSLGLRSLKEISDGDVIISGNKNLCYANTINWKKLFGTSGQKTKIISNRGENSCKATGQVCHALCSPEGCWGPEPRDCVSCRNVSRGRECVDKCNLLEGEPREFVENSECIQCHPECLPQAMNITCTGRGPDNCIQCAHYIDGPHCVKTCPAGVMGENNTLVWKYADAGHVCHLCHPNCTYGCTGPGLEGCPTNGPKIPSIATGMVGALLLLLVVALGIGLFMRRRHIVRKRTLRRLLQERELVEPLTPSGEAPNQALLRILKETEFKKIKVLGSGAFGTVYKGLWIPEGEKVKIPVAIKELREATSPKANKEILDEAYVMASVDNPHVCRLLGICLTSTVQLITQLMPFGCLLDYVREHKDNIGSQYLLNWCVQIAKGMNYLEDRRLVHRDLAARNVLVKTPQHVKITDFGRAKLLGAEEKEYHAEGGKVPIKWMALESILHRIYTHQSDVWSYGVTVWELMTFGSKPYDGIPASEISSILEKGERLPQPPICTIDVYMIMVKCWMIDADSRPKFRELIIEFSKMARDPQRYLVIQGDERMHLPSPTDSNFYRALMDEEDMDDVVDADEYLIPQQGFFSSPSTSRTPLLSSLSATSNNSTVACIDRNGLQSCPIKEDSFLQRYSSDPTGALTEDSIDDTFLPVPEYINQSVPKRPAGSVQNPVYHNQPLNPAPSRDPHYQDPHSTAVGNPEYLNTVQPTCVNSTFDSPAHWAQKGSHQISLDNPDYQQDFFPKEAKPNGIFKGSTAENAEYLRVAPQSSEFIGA

The term IC50 denotes the point on the concentration scale where inhibition reaches its midpoint. What is called residual activity is the signal under treatment as a percentage of the control signal. Lower therefore signals a large loss of activity. Regarding `C=CC(=O)Nc1cccc(-n2c(=O)cnc3cnc(Nc4ccc(N5CCN(C)CC5)cc4OC)nc32)c1`, the result in data set [1] was Active. Besides, in data set [2], the TGI entry was “Active”. For the same molecule, the Activity result in data set [3] is given as “Non-toxic”; in [4], below 5%. The MTD at 336 h in [5] was 20 mg/kg. Besides, the IC50 in [6] is 59 nM; in data set [7] it was 8.6 nM; in data set [8], 1.07 nM; in data set [9], 2.56 nM; in [10], 3.82 nM. The residual activity in data set [11] is 0.1%; in [12], 0.3%; in data set [13], below 10%; in [14] it was below 10%; in data set [15], below 10%; in data set [16] it was below 1%. In addition, the residual activity was below 1% in data set [17] and 0.35% in data set [18].

(Values after ChEMBL document CHEMBL2434822, “Discovery of pteridin-7(8H)-one-based irreversible inhibitors targeting the epidermal growth factor receptor (EGFR) kinase T790M/L858R mutant” (J Med Chem, 2013).)
